Here are results for 1 molecule from paper PMC11576293, “New series of 4,6-diaryl pyrimidines: facile synthesis and antiproliferative activity as dual EGFR/VEGFR-2 inhibitors” (Frontiers in Chemistry, 2024).

Where only a bound is given, the exact number is not on record here.

In one experiment the test system is BT-549. In words: NCI-60 single-dose screen. In kind it is cell-based. The conditions noted are these: Homo sapiens, single dose 10 µM, '-' = no inhibition, read-out: % Growth Inhibition. The method in brief: (§1)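 NCI Developmental Therapeutics Program screen across 60 human cancer cell lines from nine tumor types; compounds tested at a single dose of 10 μM.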
Turning to `C=CCSc1nc(-c2ccc(OC)cc2)cc(-c2cccc(OC)c2)n1` [Compound 20, 2-(Allylthio)-6-(3-methoxyphenyl)-4-(4-methoxyphenyl)pyrimidine], the inhibition (in general, how much of the control response was suppressed) at 10 µM is less than 0%.

The subject of the next experiment is COLO 205. In words: NCI-60 single-dose screen. The conditions noted are these: Homo sapiens, single dose 10 µM, '-' = no inhibition, read-out: % Growth Inhibition. In kind it is cell-based. The method in brief:
as §1
As to `C=CCSc1nc(-c2ccc(OC)cc2)cc(-c2cccc(OC)c2)n1` [Compound 20, 2-(Allylthio)-6-(3-methoxyphenyl)-4-(4-methoxyphenyl)pyrimidine], the inhibition at 10 µM is less than 0%.

The next experiment concerns U251. In words: NCI-60 single-dose screen. In kind it is cell-based. The note with it: Homo sapiens, U-251, single dose 10 µM, '-' = no inhibition, read-out: % Growth Inhibition. In short, it runs like this: as §1
Consider `C=CCSc1nc(-c2ccc(OC)cc2)cc(-c2cccc(OC)c2)n1` [Compound 20, 2-(Allylthio)-6-(3-methoxyphenyl)-4-(4-methoxyphenyl)pyrimidine], for which the inhibition at 10 µM is less than 0%.

Another experiment deals with HOP-62. Nature of the experiment: NCI-60 single-dose screen. In kind it is cell-based. The conditions noted are these: Homo sapiens, single dose 10 µM, '-' = no inhibition, read-out: % Growth Inhibition. The method in brief:
as §1
As to `C=CCSc1nc(-c2ccc(OC)cc2)cc(-c2cccc(OC)c2)n1` [Compound 20, 2-(Allylthio)-6-(3-methoxyphenyl)-4-(4-methoxyphenyl)pyrimidine], the inhibition at 10 µM was less than 0%.

In the next experiment the test system is OVCAR-4. In words: NCI-60 single-dose screen. In kind it is cell-based. The conditions noted are these: Homo sapiens, single dose 10 µM, '-' = no inhibition, read-out: % Growth Inhibition. The method in brief: as §1
Regarding `C=CCSc1nc(-c2ccc(OC)cc2)cc(-c2cccc(OC)c2)n1` [Compound 20, 2-(Allylthio)-6-(3-methoxyphenyl)-4-(4-methoxyphenyl)pyrimidine], the inhibition at 10 µM was found to be 5.65%.

A further experiment deals with A498. In words: NCI-60 single-dose screen. In kind it is cell-based. The conditions noted are these: Homo sapiens, single dose 10 µM, '-' = no inhibition, read-out: % Growth Inhibition. In short, it runs like this: as §1
Turning to `C=CCSc1nc(-c2ccc(OC)cc2)cc(-c2cccc(OC)c2)n1` [Compound 20, 2-(Allylthio)-6-(3-methoxyphenyl)-4-(4-methoxyphenyl)pyrimidine], the inhibition at 10 µM was less than 0%.

The subject of a further experiment is NCI-H522. Nature of the experiment: NCI-60 single-dose screen. In kind it is cell-based. The conditions noted are these: Homo sapiens, single dose 10 µM, '-' = no inhibition, read-out: % Growth Inhibition. The method in brief:
as §1
Regarding `C=CCSc1nc(-c2ccc(OC)cc2)cc(-c2cccc(OC)c2)n1` [Compound 20, 2-(Allylthio)-6-(3-methoxyphenyl)-4-(4-methoxyphenyl)pyrimidine], the inhibition at 10 µM worked out at 8.49%.

For the next experiment, the system named is HCC-2998. Nature of the experiment: NCI-60 single-dose screen. In kind it is cell-based. The conditions noted are these: Homo sapiens, single dose 10 µM, '-' = no inhibition, read-out: % Growth Inhibition. In short, it runs like this:
as §1
With `C=CCSc1nc(-c2ccc(OC)cc2)cc(-c2cccc(OC)c2)n1` [Compound 20, 2-(Allylthio)-6-(3-methoxyphenyl)-4-(4-methoxyphenyl)pyrimidine], the inhibition at 10 µM came to 2.37%.

The subject of a further experiment is T-47D. Nature of the experiment: NCI-60 single-dose screen. The note with it: Homo sapiens, T47D, single dose 10 µM, '-' = no inhibition, read-out: % Growth Inhibition. In kind it is cell-based. The method in brief:
as §1
In the case of `C=CCSc1nc(-c2ccc(OC)cc2)cc(-c2cccc(OC)c2)n1` [Compound 20, 2-(Allylthio)-6-(3-methoxyphenyl)-4-(4-methoxyphenyl)pyrimidine], the inhibition at 10 µM was 21.5%.

In the next experiment the test system is MCF7. Nature of the experiment: NCI-60 single-dose screen. In kind it is cell-based. The note with it: Homo sapiens, single dose 10 µM, '-' = no inhibition, read-out: % Growth Inhibition. The method in brief:
as §1
For `C=CCSc1nc(-c2ccc(OC)cc2)cc(-c2cccc(OC)c2)n1` [Compound 20, 2-(Allylthio)-6-(3-methoxyphenyl)-4-(4-methoxyphenyl)pyrimidine], the inhibition at 10 µM is 12.5%.

The next experiment deals with SK-OV-3. In words: NCI-60 single-dose screen. In kind it is cell-based. The conditions noted are these: Homo sapiens, single dose 10 µM, '-' = no inhibition, read-out: % Growth Inhibition. In short, it runs like this: as §1
On to `C=CCSc1nc(-c2ccc(OC)cc2)cc(-c2cccc(OC)c2)n1` [Compound 20, 2-(Allylthio)-6-(3-methoxyphenyl)-4-(4-methoxyphenyl)pyrimidine], for which the inhibition at 10 µM was less than 0%.

In another experiment the test system is RXF 393. Nature of the experiment: NCI-60 single-dose screen. In kind it is cell-based. The conditions noted are these: Homo sapiens, single dose 10 µM, '-' = no inhibition, read-out: % Growth Inhibition. The method in brief:
as §1
In the case of `C=CCSc1nc(-c2ccc(OC)cc2)cc(-c2cccc(OC)c2)n1` [Compound 20, 2-(Allylthio)-6-(3-methoxyphenyl)-4-(4-methoxyphenyl)pyrimidine], the inhibition at 10 µM is less than 0%.

The next experiment relates to HT29. In words: NCI-60 single-dose screen. In kind it is cell-based. The conditions noted are these: Homo sapiens, HT-29, single dose 10 µM, '-' = no inhibition, read-out: % Growth Inhibition. The method in brief: as §1
In the case of `C=CCSc1nc(-c2ccc(OC)cc2)cc(-c2cccc(OC)c2)n1` [Compound 20, 2-(Allylthio)-6-(3-methoxyphenyl)-4-(4-methoxyphenyl)pyrimidine], the inhibition at 10 µM came to 8.08%.

The next experiment deals with SK-MEL-2. Nature of the experiment: NCI-60 single-dose screen. In kind it is cell-based. The note with it: Homo sapiens, single dose 10 µM, '-' = no inhibition, read-out: % Growth Inhibition. The method in brief: as §1
Take `C=CCSc1nc(-c2ccc(OC)cc2)cc(-c2cccc(OC)c2)n1` [Compound 20, 2-(Allylthio)-6-(3-methoxyphenyl)-4-(4-methoxyphenyl)pyrimidine]: the inhibition at 10 µM is less than 0%.

A further experiment deals with TK-10. Nature of the experiment: NCI-60 single-dose screen. In kind it is cell-based. The note with it: Homo sapiens, single dose 10 µM, '-' = no inhibition, read-out: % Growth Inhibition. The method in brief: as §1
Consider `C=CCSc1nc(-c2ccc(OC)cc2)cc(-c2cccc(OC)c2)n1` [Compound 20, 2-(Allylthio)-6-(3-methoxyphenyl)-4-(4-methoxyphenyl)pyrimidine], for which the inhibition at 10 µM was less than 0%.

Another experiment has as its system HCT-15. In words: NCI-60 single-dose screen. In kind it is cell-based. The note with it: Homo sapiens, single dose 10 µM, '-' = no inhibition, read-out: % Growth Inhibition. In short, it runs like this: as §1
On to `C=CCSc1nc(-c2ccc(OC)cc2)cc(-c2cccc(OC)c2)n1` [Compound 20, 2-(Allylthio)-6-(3-methoxyphenyl)-4-(4-methoxyphenyl)pyrimidine], for which the inhibition at 10 µM worked out at 5.58%.

The test system of a further experiment is UACC-62. Nature of the experiment: NCI-60 single-dose screen. In kind it is cell-based. The note with it: Homo sapiens, single dose 10 µM, '-' = no inhibition, read-out: % Growth Inhibition. In short, it runs like this:
as §1
On to `C=CCSc1nc(-c2ccc(OC)cc2)cc(-c2cccc(OC)c2)n1` [Compound 20, 2-(Allylthio)-6-(3-methoxyphenyl)-4-(4-methoxyphenyl)pyrimidine], for which the inhibition at 10 µM was 18.8%.

The next experiment has as its system UO-31. In words: NCI-60 single-dose screen. In kind it is cell-based. The conditions noted are these: Homo sapiens, single dose 10 µM, '-' = no inhibition, read-out: % Growth Inhibition. In short, it runs like this:
as §1
In the case of `C=CCSc1nc(-c2ccc(OC)cc2)cc(-c2cccc(OC)c2)n1` [Compound 20, 2-(Allylthio)-6-(3-methoxyphenyl)-4-(4-methoxyphenyl)pyrimidine], the inhibition at 10 µM is 13.2%.

A further experiment has as its system NCI-H322M. In words: NCI-60 single-dose screen. In kind it is cell-based. The conditions noted are these: Homo sapiens, single dose 10 µM, '-' = no inhibition, read-out: % Growth Inhibition. In short, it runs like this:
as §1
As for `C=CCSc1nc(-c2ccc(OC)cc2)cc(-c2cccc(OC)c2)n1` [Compound 20, 2-(Allylthio)-6-(3-methoxyphenyl)-4-(4-methoxyphenyl)pyrimidine], the inhibition at 10 µM is less than 0%.

The subject of the next experiment is UACC-257. Nature of the experiment: NCI-60 single-dose screen. In kind it is cell-based. The note with it: Homo sapiens, single dose 10 µM, '-' = no inhibition, read-out: % Growth Inhibition. In short, it runs like this: as §1
With `C=CCSc1nc(-c2ccc(OC)cc2)cc(-c2cccc(OC)c2)n1` [Compound 20, 2-(Allylthio)-6-(3-methoxyphenyl)-4-(4-methoxyphenyl)pyrimidine], the inhibition at 10 µM is less than 0%.

The subject of a further experiment is RPMI-8226. In words: NCI-60 single-dose screen. In kind it is cell-based. The conditions noted are these: Homo sapiens, single dose 10 µM, '-' = no inhibition, read-out: % Growth Inhibition. In short, it runs like this:
as §1
As for `C=CCSc1nc(-c2ccc(OC)cc2)cc(-c2cccc(OC)c2)n1` [Compound 20, 2-(Allylthio)-6-(3-methoxyphenyl)-4-(4-methoxyphenyl)pyrimidine], the inhibition at 10 µM came out at 4.53%.

The test system of a further experiment is SR. In words: NCI-60 single-dose screen. In kind it is cell-based. The conditions noted are these: Homo sapiens, single dose 10 µM, '-' = no inhibition, read-out: % Growth Inhibition. The method in brief:
as §1
With `C=CCSc1nc(-c2ccc(OC)cc2)cc(-c2cccc(OC)c2)n1` [Compound 20, 2-(Allylthio)-6-(3-methoxyphenyl)-4-(4-methoxyphenyl)pyrimidine], the inhibition at 10 µM turned out to be 13%.

For the next experiment, the system named is MDA-MB-468. In words: NCI-60 single-dose screen. In kind it is cell-based. The conditions noted are these: Homo sapiens, single dose 10 µM, '-' = no inhibition, read-out: % Growth Inhibition. The method in brief:
as §1
In the case of `C=CCSc1nc(-c2ccc(OC)cc2)cc(-c2cccc(OC)c2)n1` [Compound 20, 2-(Allylthio)-6-(3-methoxyphenyl)-4-(4-methoxyphenyl)pyrimidine], the inhibition at 10 µM is 1.99%.
